Measurements: US6020373A, “Chelate derivatives as protectors against tissue injury” (Eastern Virginia Medical School, priority 1997, dated 2000)
Entries after “also recorded” stand apart in the source; their conditions may differ.

How the values were obtained:
[1] = test system: tissue injury, such as myocardial ischemia-reperfusion injury; settings: in vivo; cited from earlier work
[2] = in vivo; cited from earlier work
in vivo = settings: mouse, in vivo, ip
Procedure: (§1) For all biological studies, the substances were dissolved in water and brought to pH 7. […] Preliminary determination of the approximate toxicity level of the substances was by intraperitoneal (IP) injection of increasing doses into individual Swiss-Webster female mice until toxicity was evident. The maximum tolerated dose was the highest dose given without evident toxic symptoms such as coma, convulsions, or death. The LD 50 (IP) was determined by using at least three doses in 12 mice at each level, bracketing the approximate LD 50. The mice were followed for at least one week and examined for weight changes, general condition, and behavior. The LD 50 with lower and upper confidene iits was calculated from the data.

[3] = test system: radiation damage of right hind leg; test: Radioprotection in mice: radiation damage scores of the irradiated right hind leg; settings: for Av score (average radiation damage score, day 15-20): 6 mice per group; for effectiveness as radioprotectant: IP, mice, limb irradiation 30-40 Gy; for Av Score (average radiation damage score, day 12-24): 30 Gy to right limb, 12 mice per group, IP mmole/kg: IDA 16.7, EDTA 8.6, MPEG 17.9, MIDA 10.3, MPEDTA 7.7, saline 1.54
Procedure: The effect of PEG derivatives on tissue tolerance to radiation was tested. Groups of 6 or 12 female Swiss-Webster mice were given IP solutions of the derivatives at a dose of approxfimately one-half of the LD50. Ten minutes later, pentobarbital (PB) 0.262 mmole/kg was given IP, and twenty minutes after the first injection, the right hind leg only was irradiated with 30, 35 or 40 Gy using the Philips RT-250 unit operated under the following conditions: 200 kVp, 20 mA, 0.2 mm Cu added filtration, HVL 0.57 mm Cu, dose rate of 1.834 Gy/min. Mice were irradiated in groups of 6 or 12, and their legs were arranged within a 20×24 cm aperture cone at a 50 cm target-to-skin distance such that all their legs were within a 95% isodose. The output of the X-ray unit was calibrated using a Capintec PT-06C Farmer chamber. Controls received only PB and 0.4 ml normal saline in place of the drug.
The mice were examed daily by two independent observers for 24 days, and the limbs were scored for radiation damage graded on a scale of 0 to 3.5 according to criteria previously established (Fowler, et al., Int. J. Rad. Biol., 9:241-252, 1964). Briefly, a score of 1 corresponds to definite reddening of the foot compared to normal and a score of 2 is marked moist desquamation, loss of hair and skin, and sticking together of toes.

[4] = test system: blood urea nitrogen levels (BUN); test: Effect on renal toxicity of doxorubicin (blood urea nitrogen); settings: 27 days, FIG. 3; for prevention of doxorubicin-induced BUN increase: 7 mmole/kg IP one hour before 25 mg/kg doxorubicin into tail vein
Mice = test: in vivo; settings: IP, mice; for LD50: 12 mice at each level, LL and UL confidence limits in own columns; for MTD (maximum tolerated dose): highest dose without evident toxic symptoms such as coma, convulsions, or death
Procedure: as §1

B16F1 malignant melanoma = test: Effect on doxorubicin-caused tumor growth lag; assay type: in vivo, C57Bl/6 mice; settings: IP 30 minutes before doxorubicin 15 mg/kg IP; FIG. 4
Procedure: For this assay, the B16F1 malignant melanoma which grows in isologous C57Bl/6 mice was used. […] When the tumors reached an average of 6-8 mm diameter, they were placed in closely matched groups of 12 with similar average size tumors. The groups were injected intraperitoneally with either saline or MPEDTA, followed 30 minutes later by doxorubicin 15 mg/kg IP or saline. Tumor volumes were assessed by daily caliper measreients m two orthogonal planes. Tumor length is defined as the diameter in the plane parallel to the body, while width is defined as the diameter perpendicular to the body. Diameter product (in mm^2) was used as the index of tumor growth. The tumor areas were averaged and plotted vs. time to show growth delay as a function of the various treatments. When the average area reached […], the mice were killed by cervical dislocation. The results are in FIG. 4. The solid circles indicate the groups receiving saline-saline or MPEDTA-saline, the solid squares indicate the group receiving saline-doxorubicin, and the solid triangles indicate the group receiving MPEDTA-doxorubicin.

[5] = 40 Gy, IP mmole/kg: EDTAE, DTPA ester, MPDTE 1.0, MPEDTAE 2.0, MPEDTA 8.0, saline 2.93
[6] = 35 Gy, IP mmole/kg: EDTA, DTPA, MPEDTA, MPDTP 8.0, EDTAE 1.0, MPEDTAE, MPDTE 2.0, saline 2.36

Compound | MTD (in vivo) | Av score (average radiation damage score, day 15-20) [3, 5] | effectiveness as radioprotectant [3] | Av score (average radiation damage score, day 15-20) [3, 6] | Av Score (average radiation damage score, day 12-24) [3] | also measured
CC(=O)N(O)CCCCCNC(=O)CCC(=O)N(O)CCCCCNC(=O)CCC(=O)N(O)CCCCCN [deferoxamine (DEF), deferoxamine] |  |  |  |  |  | effectiveness in reducing tissue injury [1]: some effectiveness in reducing tissue injury; excretion / circulation lifetime [2]: rapid excretion
COC(=O)CN(CCN(CC(=O)OC)CC(=O)OC)CCN(CC(=O)OC)CC(=O)OC [DTPA methyl ester] | 1000 µmol/kg | 2.50 | not effective |  |  | 
O=C(O)CN(CCN(CC(=O)O)CC(=O)O)CC(=O)O [EDTA, ethylene-diamine tetraacetic acid] | 8000 µmol/kg |  |  |  |  | prevention of doxorubicin-induced BUN increase [4]: not
O=C(O)CN(CCN(CC(=O)O)CC(=O)O)CCN(CC(=O)O)CC(=O)O [DTPA, diethylene triamine pentaacetic acid] | 8000 µmol/kg |  | slightly effective; also recorded: moderately effective | 1.34 |  | 
O=C(O)CNCC(=O)O [IDA, iminodiacetate] | 17000 µmol/kg |  |  |  | 1.19 | LD50 (in vivo): 33100 µmol/kg
Methoxypolyethyene Glycol Amide with DTPA. Calcium Sodium Salt [MPDTP] |  |  |  | 1.21 |  | 
COc1cccc2c1C(=O)c1c(O)c3c(c(O)c1C2=O)C[C@@](O)(C(=O)CO)C[C@@H]3O[C@H]1C[C@H](N)[C@H](O)[C@H](C)O1 [Doxorubicin, doxorubicin] |  |  |  |  |  | BUN compared with the untreated control group ([4]; 25 mg/kg doxorubicin into tail vein): markedly increased BUN
Methoxypolyethlene Glycol Amide with EDTA [MPEDTA] |  | 1.67 | extremely effective; also recorded: very effective in reducing or preventing damage from radiation or doxorubicin | 1.50 | 0.24 | prevention of doxorubicin-induced BUN increase [4]: completely prevented; LD50 (Mice): 12.5 mmol/kg; MTD (maximum tolerated dose) (Mice): 8 mmol/kg; effect on tumoricidal effect of / tumor growth lag produced by doxorubicin (B16F1 malignant melanoma): clearly did not interfere with the tumoricidal effect of doxorubicin; also recorded: lack of effect
Metyl Ester of MPEDTA [MPEDTAE] |  | 1.45 | also effective in protection from tissue injury | 0.88 |  | 
Methoxypolyethylene Glycol Iminodiacetate [MIDA] |  |  | moderately effective |  | 0.67 | LD50 (Mice): 20.6 mmol/kg; MTD (maximum tolerated dose) (Mice): 8 mmol/kg; ANOVA comparison of average scores between groups ([3]; average radiation damage scores, Tables II and III): little difference
